This passage reports EC50 and Activity results from ChEMBL document CHEMBL1158896, “Isolation and structure of the cytotoxic cycloheptapeptide phakellistatin 13” (2003).

Assay [1] is described as follows: Cytotoxicity against human Bel7404 cells. The assay is classed as functional. As to conditions: BEL-7404, read-out: ED50 (the source's name).
For the next assay, the system named is HL-60. In words: Cytotoxicity against human HL60 cells. It counts as functional, cell-based.

The source made the active and inactive calls. No cut-off for these calls is given here. Where a SMILES comes first, the peptide text is derived from it.

With `CC(C)C[C@@H]1NC(=O)[C@H](Cc2c[nH]c3ccccc23)NC(=O)[C@@H]2CCCN2C(=O)[C@H](Cc2ccccc2)NC(=O)CNC(=O)[C@@H]2CCCN2C(=O)[C@H]([C@@H](C)O)NC1=O` [PHAKELLISTATIN 13] (cyclo(FPWLTPG)), in assay [1], the EC50 is less than 0.01 µg/mL. With `CC(C)C[C@@H]1NC(=O)[C@H]([C@@H](C)O)NC(=O)[C@@H]2CCCN2C(=O)CNC(=O)[C@H](Cc2ccccc2)NC(=O)[C@@H]2CCCN2C(=O)[C@H](Cc2c[nH]c3ccccc23)NC1=O` (cyclo(FGPTLWP)), in the assay with HL-60, the outcome was inactive.
